According to patent US20250351832A1, “PHYTOCHEMICALS AS BIOPESTICIDES AND BIOSTIMULANTS” (KAY BEE BIO ORGANICS PVT. LTD., priority 2024, published 2025):
Entries after “also recorded” stand apart in the source; their conditions may differ. Like-named read-outs stand apart in the source and are kept apart here.

How the values were obtained:
Alternaria alternata [1] = experiment: In vitro poisoned food technique against fungus (Ex. 20); type: cell-based; conditions: poisoned food technique, PDA medium, dose 1 ml/gm/lit., after seven days
Alternaria alternata [2] = experiment: Alternaria leaf spot/blight on inoculated tomato plants (Ex. 28); type: in vivo; conditions: tomato plants, Alternaria alternata; after 7 days; dose 1 ml/gm/lit
tomato seedlings = experiment: Response of tomato plants, greenhouse growth (Ex. 30); type: in vivo; conditions: tomato seedlings, dose 1 ml/gm/lit
chili seedlings = experiment: Response of chili plants, greenhouse growth (Ex. 31); type: in vivo; conditions: chili seedlings, dose 1 ml/gm/lit
Aphid [3] = conditions: Dose 1 ml/gm/lit.
Mite [4] = conditions: Dose 1 ml/gm/lit.
Mealy Bug [5] = conditions: Mealy Bug on cotton leaves, dose 1 ml/gm/lit., 48 Hrs.
Helicoverpa armigera [6] = conditions: Helicoverpa armigera on okra fruits, dose 1 ml/gm/lit., 72 Hrs.
Spodoptera litura [7] = conditions: Spodoptera litura on castor leaves; dose 1 ml/gm/lit.; 10 insects/treatment; 72 hrs after application
Thrips [8] = conditions: Thrips on cotton leaves; dose 1 ml/gm/lit.; 10 insects/treatment; 48 hrs after application
Aphid [9] = conditions: Aphids on cotton plants, green house; dose 1 ml/gm/lit.; 10 insects/plant, 10 plants/treatment; 48 hrs
Mite [10] = conditions: mite on okra plants, green house, dose 1 ml/gm/lit. spray
Mealy Bug [11] = conditions: mealy bug on cotton plants, green house, dose 1 ml/gm/lit. spray
Helicoverpa armigera [12] = conditions: Helicoverpa armigera 3rd instar on chickpea plants, dose 1 ml/gm/lit. spray
Spodoptera litura [13] = conditions: Spodoptera litura 3rd instar on cabbage plants, dose 1 ml/gm/lit. spray
Thrips [14] = conditions: thrips on cotton plants, greenhouse, dose 1 ml/gm/lit. spray
[15] = Table 13, effect on plants, descriptive; cited from earlier work
Spodoptera litura [16] = experiment: whole plant or invertebrate; conditions: 72 h
Thrips [17] = experiment: whole plant or invertebrate; conditions: in Gossypium hirsutum, 48 h
Aphid [18] = experiment: whole plant or invertebrate; conditions: 48 h
[19] = 10 insects/treatment, 4 replications
[20] = 48 hrs, corrected for water control
[21] = 72 hrs, corrected for water control
[22] = read-out: % Corrected Mortality at 48 Hrs.
[23] = read-out: % Mortality at 48 Hrs.

Structure (SMILES): CC1=CCC2CC1C2(C)C (stereo not drawn) [Alpha-pinene]
- Mean colony Diameter (mm) (Alternaria alternata [1]): 71.50 mm
- inhibition of growth at 1 mL or g/L (Alternaria alternata [1]; vs untreated control, read-out: % Inhibition of growth): 18.8%
- % Disease reduction over Control (Alternaria alternata [2]): 42.15%
- Plant Height 5th Day (tomato seedlings; 5th day after application): 7.24 cm
- Stem Girth 5th Day (tomato seedlings; 5th day after application): 2.01 mm
- Plant Height 10th Day (tomato seedlings; 10th day after application): 7.74 cm
- Stem Girth 10th Day (tomato seedlings; 10th day after application): 2.22 mm
- Plant Height % Increase over pre on 10th Day (tomato seedlings; 10th day): 26.47%
- Stem Girth % Increase over pre on 10th Day (tomato seedlings; 10th day): 55.24%
- CCI 5th Day (tomato seedlings; 5th day after application): 13.65
- CCI % Increase over pre on 10th Day (tomato seedlings; 10th day): 25.17%
- Root Length (cm) 10th Day (tomato seedlings; 10th day): 4.30 cm
- CCI 10th Day (tomato seedlings; 10th day after application): 14.32
- Root Length % Increase over control (tomato seedlings; 10th day, vs water control): 29.14%
- CCI 5th Day (chili seedlings; 5th day after application): 11.40
- Plant Height (cm) 5th Day (chili seedlings; 5th day after application): 6.35 cm
- CCI % Increase over pre on 10th Day (chili seedlings; 10th day): 36.59%
- Plant Height % Increase over pre on 10th Day (chili seedlings; 10th day): 51.74%
- Root Lenght (cm) 10th Day (chili seedlings; 10th day): 3.23 cm
- Stem Girth % Increase over pre on 10th Day (chili seedlings; 10th day): 41.80%
- CCI 10th Day (chili seedlings; 10th day after application): 12.58
- Plant Height (cm) 10th Day (chili seedlings; 10th day after application): 6.54 cm
- Root Lenght % Increase over control (chili seedlings; 10th day, vs water control): 17.88%
- Total No. of dead insect at 48 Hrs. (Aphid [3]; 10 insects/treatment, 4 replications, cotton leaves): 5.75
- % Corrected Mortality at 48 Hrs. (Aphid [3]; 48 hrs): 51.43%
- % Mortality at 48 Hrs. (Aphid [3]; 48 hrs): 57.50%
- Total No. of dead insect at 48 Hrs. (Mite [4]; 10 insects/treatment, 4 replications, okra leaves): 4.00
- % Corrected Mortality at 48 Hrs. (Mite [4]; 48 hrs): 35.14%
- % Mortality at 48 Hrs. (Mite [4]; 48 hrs): 40.00%
- Total No. of dead insect at 48 Hrs. (Mealy Bug [5]; [19]): 5.25
- % Mortality at 48 Hrs. (Mealy Bug [5]): 52.50%
- % Corrected Mortality at 48 Hrs. (Mealy Bug [5]; corrected for water control): 50.00%
- Total No. of dead insect at 72 Hrs. (Helicoverpa armigera [6]; [19]): 7.00
- % Mortality at 72 Hrs. (Helicoverpa armigera [6]): 70.00%
- % Corrected Mortality at 72 Hrs. (Helicoverpa armigera [6]; corrected for water control): 70.00%
- Total No. of dead insect at 72 Hrs. (Spodoptera litura [7]): 5.00
- Total No. of dead insect at 48 Hrs. (Thrips [8]): 4.25
- Total No. of dead insect at 48 Hrs. (Aphid [9]): 60.00
- % Mortality at 48 Hrs. (Mite [10]; 48 hrs after application): 32.50%
- Total No. of dead insect at 48 Hrs. (Mite [10]; 48 hrs after application): 32.50
- % Corrected Mortality at 48 Hrs. (Mite [10]; [20]): 28.95%
- % Mortality at 48 Hrs. (Mealy Bug [11]; 48 hrs after application): 60.00%
- Total No. of dead insect at 48 Hrs. (Mealy Bug [11]; 48 hrs after application): 60.00
- % Corrected Mortality at 48 Hrs. (Mealy Bug [11]; [20]): 55.56%
- % Mortality at 72 Hrs. (Helicoverpa armigera [12]; 72 hrs after application): 67.50%
- % Corrected Mortality at 72 Hrs. (Helicoverpa armigera [12]; [21]): 67.50%
- % Mortality at 72 Hrs. (Spodoptera litura [13]; 72 hrs after application): 55.00%
- % Corrected Mortality at 72 Hrs. (Spodoptera litura [13]; [21]): 52.63%
- Total No. of dead insect at 48 Hrs. (Thrips [14]; 48 hrs after application): 42.50
- % Corrected Mortality at 48 Hrs. (Thrips [14]; [20]): 36.11%
- Phytotonic Effect [15]: Trigger plant; also recorded: Boost chlorophyll
- mortality at 1 mL or g/L (Spodoptera litura [16]; read-out: % Corrected Mortality at 72 Hrs.): 47.4%
- mortality at 1 mL or g/L (Spodoptera litura [16]; read-out: % Mortality at 72 Hrs.): 50%
- mortality at 1 mL or g/L (Thrips [17]; [22]): 34.3%
- mortality at 1 mL or g/L (Thrips [17]; [23]): 42.5%
- mortality at 1 mL or g/L (Aphid [18]; [22]): 52.9%
- mortality at 1 mL or g/L (Aphid [18]; [23]): 60%
